Eleven compounds from US20250195536A1, “BICYCLOOCTANE KRAS INHIBITORS” (Incyte Corporation, priority 2023, published 2025) can be followed below.

The target of one data set is KRAS G12V (Homo sapiens, UniProt P01116, G12V). The data set can be described thus: GDP-GTP exchange assay (KRAS G12V).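 Note: one dagger IC50 up to 100 nM and two daggers above 100 nM up to 1 μM.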 It is filed as biochemical. To be noted: bodipy-GDP/GppNHp exchange with SOS1; 3 h incubation after GppNHp-SOS1. Put shortly: (§1)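 Bodipy-GDP-loaded KRAS (2.5 nM final) was pre-incubated 4 h at r.t. with inhibitor in Hepes pH 7.5 buffer with MgCl2, then exchange started with GppNHp (500 μM) and SOS1 (150 nM) final. Fluorescence (ex 485/em 520 nm) read after 2 h for G12D, 3 h for G12V; IC50 from four-parameter logistic fit.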
Sequence of KRAS G12V (P01116 1-188 isoform P01116-2 G12V): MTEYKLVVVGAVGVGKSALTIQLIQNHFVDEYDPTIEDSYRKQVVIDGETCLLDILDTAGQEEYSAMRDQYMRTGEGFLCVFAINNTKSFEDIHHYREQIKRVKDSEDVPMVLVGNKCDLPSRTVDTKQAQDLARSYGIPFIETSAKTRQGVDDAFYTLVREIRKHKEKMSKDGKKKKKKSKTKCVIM

Another data set has as its target KRAS G12D (Homo sapiens, UniProt P01116, G12D). The data set can be described thus: GDP-GTP exchange assay (KRAS G12D).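 Note: one dagger IC50 up to 100 nM and two daggers above 100 nM up to 1 μM.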 It is filed as biochemical. The note with it: bodipy-GDP/GppNHp exchange with SOS1; 4 h pre-incubation, 2 h reaction. The essentials: as §1
Data set [1] is described as follows: Caco2 assay (permeability, Papp A-B). Format: in vitro ADME. To be noted: human, Caco-2, absorptive direction (A-B), 50 μM test compound, 4% BSA in receiver. Put shortly: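 Caco-2 monolayers, 22-25 days on Transwells, TEER 300 Ω·cm^2, dosed apically with 50 μM compound in HBSS; basolateral HBSS with 4% BSA. 120 min at 37 °C, samples quantified by LCMS; Papp (A-B) from receiver-side cumulative flux slope, donor volume, surface area and initial donor amount.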
Background: Caco-2 monolayers are a common model of the intestinal barrier.

Each structure is given as a SMILES string.

Sequence of KRAS G12D (P01116 1-188 isoform P01116-2 G12D): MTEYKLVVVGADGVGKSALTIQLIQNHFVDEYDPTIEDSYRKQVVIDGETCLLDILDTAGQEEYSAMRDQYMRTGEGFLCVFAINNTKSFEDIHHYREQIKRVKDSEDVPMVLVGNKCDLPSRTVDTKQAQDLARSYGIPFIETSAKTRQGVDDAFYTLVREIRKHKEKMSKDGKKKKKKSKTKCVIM

Take `Cc1nc2c(F)c(-c3cccc(Cl)c3Cl)c(CCC#N)cc2c2c1cc([C@H]1[C@H]3C[C@H](CN(c4ncccn4)C3)N1C(=O)C1CC1)n2[C@H]1[C@H]2CN[C@@H]1C2` (atropisomer, axis not shown; (Ra)) [Example 33, 3-((Ra)-1-((1R,4R,5S)-2-azabicyclo[2.1.1]hexan-5-yl)-2-((1S,5R,7R)-6-(cyclopropanecarbonyl)-3-(pyrimidin-2-yl)-3,6-diazabicyclo[3.2.1]octan-7-yl)-7-(2,3-dichlorophenyl)-6-fluoro-4-methyl-1H-pyrrolo[3,2-c]quinolin-8-yl)propanenitrile]: on KRAS G12V, the “G12V_exchange (KRAS_G12V exchange assay IC50)” value (shortened to “G12V_exchange”) is listed as “†”. Also, the “G12D_exchange (KRAS_G12D exchange assay IC50)” value (shortened to “G12D_exchange”) at KRAS G12D is “†”. Further, the Papp A→B at 120 min, 50 μM in data set [1] was no more than 0.5 ×10⁻⁶ cm/s.
Take `Cc1nc2c(F)c(-c3cccc(Cl)c3Cl)c(CCC#N)cc2c2c1cc([C@H]1[C@H]3C[C@H](CN(c4ccc(C(F)(F)F)nn4)C3)N1C(=O)C1CC1)n2[C@H]1[C@H]2CN[C@@H]1C2` (atropisomer, axis not shown; (Ra)) [Example 34, 3-((Ra)-1-((1R,4R,5S)-2-azabicyclo[2.1.1]hexan-5-yl)-2-((1S,5R,7R)-6-(cyclopropanecarbonyl)-3-(6-(trifluoromethyl)pyridazin-3-yl)-3,6-diazabicyclo[3.2.1]octan-7-yl)-7-(2,3-dichlorophenyl)-6-fluoro-4-methyl-1H-pyrrolo[3,2-c]quinolin-8-yl)propanenitrile]: the “G12V_exchange” value at KRAS G12V is reported as “†”. In addition, the “G12D_exchange” value at KRAS G12D is “†”. Further, the Papp A→B at 120 min, 50 μM in data set [1] was no more than 0.5 ×10⁻⁶ cm/s.
`Cc1nc2c(F)c(-c3cccc(Cl)c3Cl)c(CCC#N)cc2c2c1cc([C@H]1[C@H]3C[C@H](CN(c4ccn(C)c(=O)c4)C3)N1C(=O)C1CC1)n2[C@H]1[C@H]2CN[C@@H]1C2` (atropisomer, axis not shown; (Ra)) [Example 35, 3-((Ra)-1-((1R,4R,5S)-2-azabicyclo[2.1.1]hexan-5-yl)-2-((1S,5R,7R)-6-(cyclopropanecarbonyl)-3-(1-methyl-2-oxo-1,2-dihydropyridin-4-yl)-3,6-diazabicyclo[3.2.1]octan-7-yl)-7-(2,3-dichlorophenyl)-6-fluoro-4-methyl-1H-pyrrolo[3,2-c]quinolin-8-yl)propanenitrile]: the “G12V_exchange” value at KRAS G12V is reported as “†”. For the same compound, the “G12D_exchange” value on KRAS G12D is listed as “†”. Also, in data set [1], the Papp A→B at 120 min, 50 μM is no more than 0.5 ×10⁻⁶ cm/s.
For the compound `Cc1nc2c(F)c(-c3cccc(Cl)c3Cl)c(CCC#N)cc2c2c1cc([C@H]1[C@H]3C[C@H](CN(c4ccccn4)C3)N1C(=O)C1CC1)n2[C@H]1[C@H]2CN[C@@H]1C2` (atropisomer, axis not shown; (Ra)) [Example 36, 3-((Ra)-1-((1R,4R,5S)-2-azabicyclo[2.1.1]hexan-5-yl)-2-((1S,5R,7R)-6-(cyclopropanecarbonyl)-3-(pyridin-2-yl)-3,6-diazabicyclo[3.2.1]octan-7-yl)-7-(2,3-dichlorophenyl)-6-fluoro-4-methyl-1H-pyrrolo[3,2-c]quinolin-8-yl)propanenitrile], the “G12V_exchange” value on KRAS G12V is given as “†”. Further, the “G12D_exchange” value on KRAS G12D was “†”. The compound further gave a Papp A→B at 120 min, 50 μM in data set [1] of no more than 0.5 ×10⁻⁶ cm/s.
On to `Cc1nc2c(F)c(-c3cccc(Cl)c3Cl)c(CCC#N)cc2c2c1cc([C@H]1[C@H]3C[C@H](CN(c4ccnc(C(F)(F)F)c4)C3)N1C(=O)C1CC1)n2[C@H]1[C@H]2CN[C@@H]1C2` (atropisomer, axis not shown; (Ra)) [Example 38, 3-((Ra)-1-((1R,4R,5S)-2-azabicyclo[2.1.1]hexan-5-yl)-2-((1S,5R,7R)-6-(cyclopropanecarbonyl)-3-(2-(trifluoromethyl)pyridin-4-yl)-3,6-diazabicyclo[3.2.1]octan-7-yl)-7-(2,3-dichlorophenyl)-6-fluoro-4-methyl-1H-pyrrolo[3,2-c]quinolin-8-yl)propanenitrile], for which the “G12V_exchange” value on KRAS G12V is recorded as “†”. Also, the “G12D_exchange” value at KRAS G12D is recorded as “†”. In data set [1], the Papp A→B at 120 min, 50 μM is no more than 0.5 ×10⁻⁶ cm/s.
`Cc1nc2c(F)c(-c3cccc(Cl)c3Cl)c(CCC#N)cc2c2c1cc([C@H]1[C@H]3C[C@H](CN(c4cc(C(F)(F)F)ccn4)C3)N1C(=O)C1CC1)n2[C@H]1[C@H]2CN[C@@H]1C2` (atropisomer, axis not shown; (Ra)) [Example 39, 3-((Ra)-1-((1R,4R,5S)-2-azabicyclo[2.1.1]hexan-5-yl)-2-((1S,5R,7R)-6-(cyclopropanecarbonyl)-3-(4-(trifluoromethyl)pyridin-2-yl)-3,6-diazabicyclo[3.2.1]octan-7-yl)-7-(2,3-dichlorophenyl)-6-fluoro-4-methyl-1H-pyrrolo[3,2-c]quinolin-8-yl)propanenitrile]: the “G12V_exchange” value on KRAS G12V is “†”. For the same compound, at KRAS G12D, the “G12D_exchange” value is “†”. For the same compound, the Papp A→B at 120 min, 50 μM in data set [1] was no more than 0.5 ×10⁻⁶ cm/s.
In the case of `Cc1nc2c(F)c(-c3cccc(Cl)c3Cl)c(CCC#N)cc2c2c1cc([C@H]1[C@H]3C[C@H](CN(c4cnccn4)C3)N1C(=O)C1CC1)n2[C@H]1[C@H]2CN[C@@H]1C2` (atropisomer, axis not shown; (Ra)) [Example 40, 3-((Ra)-1-((1R,4R,5S)-2-azabicyclo[2.1.1]hexan-5-yl)-2-((1S,5R,7R)-6-(cyclopropanecarbonyl)-3-(pyrazin-2-yl)-3,6-diazabicyclo[3.2.1]octan-7-yl)-7-(2,3-dichlorophenyl)-6-fluoro-4-methyl-1H-pyrrolo[3,2-c]quinolin-8-yl)propanenitrile], the “G12V_exchange” value at KRAS G12V is recorded as “†”. Also, the “G12D_exchange” value on KRAS G12D was “†”. In data set [1], the Papp A→B at 120 min, 50 μM was no more than 0.5 ×10⁻⁶ cm/s.
Consider `Cc1nc2c(F)c(-c3cccc(Cl)c3Cl)c(CCC#N)cc2c2c1cc([C@H]1[C@H]3C[C@H](CN(c4ncc(C(F)(F)F)cn4)C3)N1C(=O)C1CC1)n2[C@H]1[C@H]2CN[C@@H]1C2` (atropisomer, axis not shown; (Ra)) [Example 41, 3-((Ra)-1-((1R,4R,5S)-2-azabicyclo[2.1.1]hexan-5-yl)-2-((1S,5R,7R)-6-(cyclopropanecarbonyl)-3-(5-(trifluoromethyl)pyrimidin-2-yl)-3,6-diazabicyclo[3.2.1]octan-7-yl)-7-(2,3-dichlorophenyl)-6-fluoro-4-methyl-1H-pyrrolo[3,2-c]quinolin-8-yl)propanenitrile], for which, on KRAS G12V, the “G12V_exchange” value is given as “†”. The “G12D_exchange” value at KRAS G12D was “†”. In addition, the Papp A→B at 120 min, 50 μM in data set [1] was no more than 0.5 ×10⁻⁶ cm/s.
In the case of `COc1ccnc(N2C[C@@H]3C[C@H](C2)N(C(=O)C2CC2)[C@H]3c2cc3c(C)nc4c(F)c(-c5cccc(Cl)c5Cl)c(CCC#N)cc4c3n2[C@H]2[C@H]3CN[C@@H]2C3)n1` (atropisomer, axis not shown; (Ra)) [Example 42, 3-((Ra)-1-((1R,4R,5S)-2-azabicyclo[2.1.1]hexan-5-yl)-2-((1S,5R,7R)-6-(cyclopropanecarbonyl)-3-(4-methoxypyrimidin-2-yl)-3,6-diazabicyclo[3.2.1]octan-7-yl)-7-(2,3-dichlorophenyl)-6-fluoro-4-methyl-1H-pyrrolo[3,2-c]quinolin-8-yl)propanenitrile], the “G12V_exchange” value on KRAS G12V is “†”. Besides, the “G12D_exchange” value at KRAS G12D is on record as “†”. Further, the Papp A→B at 120 min, 50 μM in data set [1] is no more than 0.5 ×10⁻⁶ cm/s.
`Cc1nc2c(F)c(-c3cccc(Cl)c3Cl)c(CCC#N)cc2c2c1cc([C@H]1[C@H]3C[C@H](CN(c4nccc(C(F)(F)F)n4)C3)N1C(=O)C1CC1)n2[C@H]1[C@H]2CN[C@@H]1C2` (atropisomer, axis not shown; (Ra)) [Example 43, 3-((Ra)-1-((1R,4R,5S)-2-azabicyclo[2.1.1]hexan-5-yl)-2-((1S,5R,7R)-6-(cyclopropanecarbonyl)-3-(4-(trifluoromethyl)pyrimidin-2-yl)-3,6-diazabicyclo[3.2.1]octan-7-yl)-7-(2,3-dichlorophenyl)-6-fluoro-4-methyl-1H-pyrrolo[3,2-c]quinolin-8-yl)propanenitrile]: on KRAS G12V, the “G12V_exchange” value was “†”. Moreover, the “G12D_exchange” value on KRAS G12D is “†”. The compound further registered a Papp A→B at 120 min, 50 μM in data set [1] of no more than 0.5 ×10⁻⁶ cm/s.
In the case of `Cc1nc2c(F)c(-c3cccc(Cl)c3Cl)c(CCC#N)cc2c2c1cc([C@H]1[C@H]3C[C@H](CN(c4cnc(C(F)(F)F)cn4)C3)N1C(=O)C1CC1)n2[C@H]1[C@H]2CN[C@@H]1C2` (atropisomer, axis not shown; (Ra)) [Example 44, 3-((Ra)-1-((1R,4R,5S)-2-azabicyclo[2.1.1]hexan-5-yl)-2-((1S,5R,7R)-6-(cyclopropanecarbonyl)-3-(5-(trifluoromethyl)pyrazin-2-yl)-3,6-diazabicyclo[3.2.1]octan-7-yl)-7-(2,3-dichlorophenyl)-6-fluoro-4-methyl-1H-pyrrolo[3,2-c]quinolin-8-yl)propanenitrile], on KRAS G12V, the “G12V_exchange” value is reported as “†”. The “G12D_exchange” value on KRAS G12D is recorded as “†”. Further, in data set [1], the Papp A→B at 120 min, 50 μM was no more than 0.5 ×10⁻⁶ cm/s.

What is called Papp A→B is the apparent permeability from the apical to the basolateral side of a cell layer. A lower Papp A→B goes with slow passage.
